Article PMC8167039, “A Comparative Study of Human and Zebrafish Pregnane X Receptor Activities of Pesticides and Steroids Using In Vitro Reporter Gene Assays” (Frontiers in Endocrinology, 2021)
Where two headings read alike, the source gives them in different places.

Experiments:
hPXR = target: T1, hPXR (Homo sapiens, UniProt O75469); assay: HG5LN Gal4-hPXR luciferase reporter gene assay, agonism
T1 sequence (O75469 146-433 limits assumed): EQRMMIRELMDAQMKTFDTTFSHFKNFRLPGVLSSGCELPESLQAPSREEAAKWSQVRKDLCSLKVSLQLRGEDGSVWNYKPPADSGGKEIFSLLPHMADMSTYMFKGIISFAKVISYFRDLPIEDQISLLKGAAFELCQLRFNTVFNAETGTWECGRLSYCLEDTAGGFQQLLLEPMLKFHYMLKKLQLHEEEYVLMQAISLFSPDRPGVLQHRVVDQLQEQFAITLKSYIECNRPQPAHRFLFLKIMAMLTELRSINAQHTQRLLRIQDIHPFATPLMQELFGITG
Procedure: (§1) The cell lines used in this study are listed in Supplementary Table 3 . The HG5LN, HG5LN Gal4-hPXR and HG5LN Gal4-zfPXR cell lines were previously described ([19]). Briefly, HeLa cells stably transfected with the GAL4RE5-βGlobin-Luc-SVNeo plasmid (HG5LN cell line) ([15]). HG5LN cells were stably transfected with the pSG5-GAL4(DBD)-hPXR(LBD)-puro or pSG5-GAL4(DBD)-zfPXR(LBD)-puro plasmids.
(§2) HG5LN cells were cultured in Dulbecco’s Modified Eagle Medium: Nutrient Mixture F-12 (D-MEM/F-12) containing phenol red and 1 g/L glucose and supplemented with 5% fetal bovine serum, 100 units/mL of penicillin and 100 µg/mL of streptomycin supplemented with 1 mg/mL geneticin in a 5% CO2 humidified atmosphere at 37°C. HG5LN GAL4-hPXR and GAL4-zfPXR were cultured in the same culture medium supplemented with 0.5 µg/mL puromycin.
(§3) The ability of chemicals to modulate the hPXR and zfPXR was investigated in HG5LN, HG5LN-hPXR, HG5LN-zfPXR, and ZFL-zfPXR cell lines after exposure to serial dilutions of the compounds and measurement of luciferase activity. […] Briefly, cells were seeded in 96-well white opaque flat bottom microplates at 0.5 10^5 cells per well in culture medium. […] Cells were then exposed to a concentration range of the compounds by using an automated workstation (Biomek 3000, Beckman Coulter). The final concentration of DMSO in the well never exceeds 0.1% (v/v). After 16h of exposure, medium was removed and 50 µL of test medium containing 0.3 mM D-luciferin were added per well. After 5 min, the production of light was assessed in living cells using microplate reader (MicroBeta, PerkinElmer SAS, Courtabœuf, France).
(§4) In the transactivation assay, each compound was tested at various concentrations in three independent experiments at least. For each experiment, tests were performed in quadruplicates for each concentration, and data are expressed by means values with standard deviations. […] This allowed to determine EC50 and IC50 values of tested chemicals.

zfPXR [1] = target: T2, zfPXR (Danio rerio, UniProt A5WYG8); assay: HG5LN Gal4-zfPXR luciferase reporter gene assay, antagonism (coexposure with clotrimazole); format: cell-based, zebrafish
T2 sequence (A5WYG8 entry or part of it): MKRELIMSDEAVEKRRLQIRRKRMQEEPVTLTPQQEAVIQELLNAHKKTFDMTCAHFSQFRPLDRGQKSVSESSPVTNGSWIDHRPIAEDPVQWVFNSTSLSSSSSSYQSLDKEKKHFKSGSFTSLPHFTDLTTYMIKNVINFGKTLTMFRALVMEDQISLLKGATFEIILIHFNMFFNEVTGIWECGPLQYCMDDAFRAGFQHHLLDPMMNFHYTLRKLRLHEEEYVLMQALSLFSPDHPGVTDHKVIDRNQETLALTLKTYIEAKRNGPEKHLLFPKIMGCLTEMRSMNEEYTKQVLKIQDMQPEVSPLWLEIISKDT
Procedure: as §1, §2, §3, §4

zfPXR [2] = target: T2, zfPXR; assay: cell-based; details: for zfPXR antagonism Min: ZFL-zfPXR, coexposure with 0.03 µM clotrimazole, % of maximal induced by 1 µM clotrimazole
Procedure: as §3, §4

zfPXR [3] = target: T2, zfPXR; assay: cell-based; set-up: Emax: dose or concentration left out as unconfirmed
Procedure: as §3, §4

zfPXR [4] = target: T2, zfPXR; assay: HG5LN Gal4-zfPXR luciferase reporter gene assay, agonism; format: cell-based, zebrafish; set-up: Emax: dose or concentration left out as unconfirmed; details: for Emax: HG5LN, read-out: zfPXR agonism Max
Procedure: as §1, §2, §3, §4

[5] = HG5LN-hPXR, maximal activity at 10 µM, % of maximal induced by 3 µM SR 12813, DMSO 19 ± 6
[6] = HG5LN, read-out: zfPXR antagonism Min
[7] = HG5LN; read-out: zfPXR antagonism Min
[8] = read-out: zfPXR antagonism IC50

CCCN(CCOc1c(Cl)cc(Cl)cc1Cl)C(=O)n1ccnc1 [Prochloraz]
EC50 (hPXR): 1.8 ± 0.1 µM
hPXR agonism Max (hPXR): 71%
IC50 (zfPXR [1]): 11 ± 5.6 µM

CCOc1cc(Oc2ccc(C(F)(F)F)cc2Cl)ccc1[N+](=O)[O-] [Oxyfluorfen]
EC50 (hPXR): 3 ± 0.1 µM
hPXR agonism Max (hPXR; [5]): 86%
IC50 (zfPXR [1]): 10 ± 1.2 µM
remaining activity at 10 µM (zfPXR [1]; [6]): 56%

COC(=O)C(C)Oc1ccc(Oc2ccc(Cl)cc2Cl)cc1 (stereo not shown) [Diclofop-methyl]
remaining activity at 10 µM (zfPXR [1]; [7]): 65%

CC1(C)[C@H](C(=O)O[C@H](C#N)c2cccc(Oc3ccccc3)c2)[C@@H]1C=C(Br)Br [Deltamethrin]
IC50 (zfPXR [2]): 1.6 ± 0.06 µM
zfPXR antagonism Min (zfPXR [2]; minimal activity at 10 µM): 3%
EC50 (hPXR): 1.8 ± 0.2 µM
hPXR agonism Max (hPXR; [5]): 92%
IC50 (zfPXR [1]): 1.6 ± 0.2 µM
remaining activity at 10 µM (zfPXR [1]; [6]): 21%

CC#C[C@]1(O)CC[C@H]2[C@@H]3CCC4=CC(=O)CCC4=C3[C@@H](c3ccc(N(C)C)cc3)C[C@@]21C [Mifepristone, reference compound]
IC50 (zfPXR [2]): 0.06 ± 0.004 µM
zfPXR antagonism Min (zfPXR [2]; compounds marked *, not tested above 3 µM): 5%
IC50 (zfPXR [1]): 0.08 ± 0.003 µM

ClC1=C(Cl)[C@]2(Cl)[C@@H]3[C@@H]4C[C@@H]([C@H]5O[C@@H]45)[C@@H]3[C@@]1(Cl)C2(Cl)Cl [Dieldrin]
EC50 (hPXR): 9.2 ± 1.4 µM
hPXR agonism Max (hPXR): 62%
IC50 (zfPXR [1]): 19 ± 8.8 µM

OC(c1ccc(Cl)cc1)(c1cncnc1)c1ccccc1Cl (stereo not shown) [Fenarimol]
EC50 (hPXR): 13 ± 2.2 µM
hPXR agonism Max (hPXR; [5]): 56%
IC50 (zfPXR [1]): 24 ± 7.1 µM
remaining activity at 10 µM (zfPXR [1]; [6]): 66%

CC1(C)[C@H](C(=O)O[C@H](C#N)c2cccc(Oc3ccccc3)c2)[C@@H]1/C=C(\Cl)C(F)(F)F (racemic) [λ-Cyhalothrin]
EC50 (hPXR): 1.7 ± 0.2 µM
hPXR agonism Max (hPXR; [5]): 107%
IC50 (zfPXR [1]): 6.8 ± 1 µM
remaining activity at 10 µM (zfPXR [1]; [6]): 45%

CC1(C)C(C=C(Cl)Cl)C1C(=O)OC(C#N)c1cccc(Oc2ccccc2)c1 (stereo not shown) [Cypermethrin]
IC50 (zfPXR [1]): 5 ± 0.3 µM
remaining activity at 10 µM (zfPXR [1]; [6]): 31%

CC(C)(C)C(O)(CCc1ccc(Cl)cc1)Cn1cncn1 (stereo not shown) [Tebuconazole]
EC50 (hPXR): 6.8 ± 0.4 µM
hPXR agonism Max (hPXR; [5]): 71%
IC50 (zfPXR [1]): 24 ± 4.3 µM
remaining activity at 10 µM (zfPXR [1]; [6]): 62%

CCC(CC)Nc1c([N+](=O)[O-])cc(C)c(C)c1[N+](=O)[O-] [Pendimethalin]
EC50 (zfPXR [3]): 0.12 ± 0.01 µM
Emax (zfPXR [3]; read-out: zfPXR agonism Max): 92%
EC50 (hPXR): 3 ± 0.1 µM
hPXR agonism Max (hPXR): 91%
EC50 (zfPXR [4]): 0.47 ± 0.1 µM

CC(=O)[C@H]1CC[C@H]2[C@@H]3CCC4=CC(=O)CC[C@]4(C)[C@H]3CC[C@]12C [Progesterone, reference compound]
EC50 (hPXR): 9.1 ± 2.2 µM
remaining activity at 10 µM (zfPXR [1]; [7]): 14%
IC50 (zfPXR [1]; [8]): 0.64 ± 0.03 µM

c1ccc2[nH]c(-c3cscn3)nc2c1 [Thiabendazole]
IC50 (zfPXR [1]; [8]): 10 ± 0.7 µM

C[C@]12CCC(=O)C=C1[C@@H]1C[C@@H]1[C@H]1[C@@H]3[C@@H]4C[C@@H]4[C@@]4(CCC(=O)O4)[C@@]3(C)CC[C@@H]12 [Drospirenone, reference compound]
hPXR agonism Max (hPXR; [5]): 44%
remaining activity at 10 µM (zfPXR [1]; [6]): 52%
IC50 (zfPXR [1]; [8]): 3.6 ± 0.4 µM

Fc1ccc([C@]2(Cn3cncn3)O[C@H]2c2ccccc2Cl)cc1 (racemic) [Epoxiconazole]
EC50 (hPXR): 8.1 ± 0.2 µM
EC50 (zfPXR [4]): 1.6 ± 0.1 µM
Emax (zfPXR [4]): 68%

CCCC(Cn1cncn1)c1ccc(Cl)cc1Cl (stereo not shown) [Penconazol]
hPXR agonism Max (hPXR; [5]): 42%
EC50 (zfPXR [4]): 1.5 ± 0.1 µM
Emax (zfPXR [4]): 51%

C#C[C@]1(O)CC[C@H]2[C@@H]3CCC4=CCCC[C@@H]4[C@H]3C(=C)C[C@@]21CC [Desogestrel, reference compound]
EC50 (zfPXR [3]): 0.07 ± 0.004 µM
hPXR agonism Max (hPXR): 54%
EC50 (zfPXR [4]; HG5LN-zfPXR cells, 16h exposure, n.a. = not active, read-out: zfPXR agonism EC50): 0.13 ± 0.01 µM
